{
  "source": "paper PMC3723855",
  "about": "“R31C GNRH1 Mutation and Congenital Hypogonadotropic Hypogonadism” (PLoS ONE, 2013)",
  "test_system": "LbetaT2 cells",
  "assay": "Intracellular calcium mobilization (Fura2) in LbetaT2 cells",
  "type": "cell-based, murine",
  "settings": "pre-treatment with 100 nM cetrorelix; data not shown",
  "method": "Figure 5 Effect of treatments on intracellular calcium mobilization. Cells were loaded with Fura 2-AM. At the time of the experiment 100 µM EGTA was added 30 sec before addition of 300 µM of CaCl2 (Ca^2+) to the medium as indicated, and cells were then stimulated with 10 nM of wild type (WT), mutant (R31C) or equimolar combination (10 nM WT +10 nM R31C) or vehicle for 3 min. In the upper panel, representative curves of single cell recording. Each experiment mean was analysed using One-way ANOVA followed by Tukey's Multiple comparison test. In the lower panels, histograms show the means ± SEM (n = 4) of the response to ligands as calcium peak and as area under the curve (AUC). […] Representative of at least three independent experiments, *p<0.05.\nLbetaT2 cells were kept in serum free medium overnight and then loaded with 2 µM Fura2-AM for 45 min at 37°C. The experiment was conducted in HEPES buffer (in mM; 116 NaCl, 5.6 KCl, 1.2 MgCl2, 5 NaHCO3, 1 NaH2PO4, 20 HEPES ph 7.4) in presence of extracellular Ca^2+ (EGTA 100 µM + CaCl2 300 µM). Single images of fluorescent emission at 510 nm under excitation at 340 and 380 nm were taken every 5 Sec. Changes in [Ca^2+]i in response to GnRHs were monitored using the Fura2 340/380 fluorescence ratio. Basal ratio was arbitrarily considered as 1. Ca^2+ responses over basal level were given either as maximal rise of [Ca^2+]i or as area under the curve (for 2 min after agonist addition).",
  "data": [
    {"substance": "cetrorelix [reference compound]", "values": [
      {"measurement": "calcium responses to WT and R31C after antagonist pre-treatment", "value": "abolished responses to both ligands"}
    ]}
  ]
}
